These results are taken from patent publication US20220194952A1, “TETRAPYRROLIC CONJUGATES AND USES THEREOF FOR IMAGING” (Health Research, Inc., priority 2019, published 2022).

A short description of data set [1]: Singlet oxygen phosphorescence at 1270 nm, methanol, pulsed laser 532 nm. Format: physicochemical. Conditions: near 5 μM, equi-absorbant at 532 nm, excited at 532 nm. The method, then:
The photosensitizers, e. g., HPPH (control), 2 and 4 were individually dissolved in methanol (concentration: 5 μM) in polystyrene cuvettes and excited at 532 nm using a pulsed laser. Phosphorescence of singlet oxygen was detected at 1270 nm.
Before evaluating the imaging and photosensitizing potential of the chlorin 4 with extended ring system, its singlet oxygen producing ability was compared with the related chlorin 2. In brief, both compounds were individually dissolved in methanol in equi-absorbant (at 532 nm) concentrations near 5 μM and excited at 532 nm using a pulsed laser. The phosphorescence of singlet oxygen was detected at 1270 nm. From the results summarized in FIG. 4, it can be seen that compared to chlorin 2 with a five-member isocyclic ring, the related analog 4 with an extended ring system had remarkably lower singlet oxygen producing ability. Singlet oxygen quantum yields were φ=0.29 and φ=0.02 respectively, compared to HPPH φ=0.45.

The nature of data set [2]: Absorbance (UV-VIS) in methanol. The format is physicochemical. The conditions noted are these: ε665 for 2 (peak 660 nm), ε785 for 4 (peak 785 nm). As for the experimental part: Absorbance of 2 and 4 was measured using different concentrations in methanol on UV-VIS and indicates far-red peaks at 660 nm and 785 nm, with extinction coefficients ε665=47,500 L·mol^−1 cm^−1 and ε785=18,100 L·mol^−1 cm^−1 respectively.
Chemistry Methods: All reactions were carried out in heat gun-dried glassware under an atmosphere of nitrogen and magnetic stirring. Thin layer chromatography (TLC) was done on pre-coated silica gel sheets (layer thickness 0.2 mm). Column chromatography was performed either using silica gel 60 (70-230 mesh) or neutral alumina grade III. In some cases preparative TLC was used for the purification of compounds. Purity of the compounds was ascertained by TLC and HPLC analysis. All compounds including the intermediates were >95% pure. UV-visible spectra were recorded on FT UV-visible spectrophotometer using methanol as a solvent. Mass spectrometry analyses were performed at the Mass Spectrometry Facility, University at Buffalo, N.Y. Compounds 1 and 2 were synthesized by following the methodologies previously described.

Data set [3] can be described thus: Photobleaching in 17% bovine calf serum. The conditions noted are these: 660 nm. The format is physicochemical. The method, then:
Photobleaching was performed in quartz cuvettes on a 5 μM solution of 2 and a 25 μM solution of 4 in 17% BCS. The higher molarity was chosen to approximate the absorbance of 2 at 5 μM. A dye laser was used at dose rate 75 mW/cm^2, and excitation wavelength for 2 was 660 nm and for 4 was 785 nm.
In photodynamic therapy, photobleaching is the photochemical alteration of a chromophore or a fluorophore molecule such that could either permanently is unable to fluoresce or alter its fluorescence characteristics. This is caused by cleaving of the covalent bonds or non-specific reaction between the reactive oxygen species (e.g., singlet oxygen) and the molecule. These […] species formed by conversion of the molecular oxygen present in tumor to singlet oxygen by exposing the photosensitizer with light at an appropriate wavelength. The rate of photobleaching of the PS should depend (a) availability of oxygen, (b) photostability of PS and finally (c) the singlet oxygen (or other reactive oxygen species) producing ability of the PS.
To investigate the photobleaching characteristics of the photosensitizers, compounds 2 and 4 in equimolar concentrations (5 μM) were taken in quartz cuvettes in 17% bovine calf serum. Dye lasers with appropriate wavelength (2: 660 nm and 4: 785 nm) were used at a dose rate of 75 mW/cm^2. Both the compounds in formulated forms were irradiated with light and the absorption spectra at their long wavelength absorptions were measured with time. The decay in absorbance was plotted against the time of light exposure.

The test system of the next data set is Colon26 cells. Briefly: In vitro cytotoxicity (PDT) MTT assay. Format: cell-based. As for the experimental part:
Drug concentrations were increased 10× (0.25 to 32.0 μM) and a significant cytotoxicity was observed only at high concentrations at the highest light dose.
Assessment of cell growth following treatment with compound solutions alone and after light exposure was determined by a colorimetric assay that measured the reduction of yellow 3-(4,5-dimethythiazol-2-yl)-2,5-diphenyl tetrazolium bromide (MTT) by mitochondrial succinate dehydrogenase.
Briefly cells were plated into 96 well plates, allowed to adhere to the plate and are treated with a range of compound concentrations for various lengths of time. The light source consisted of dye lasers (375; Spectra-Physics, Mt. View, Calif.) pumped by an argon-ion laser (either 171 or 2080; Spectra-Physics). The dye lasers were tuned to the appropriate wavelength for the compound being tested. Total light doses were ranged from 0.125 to 1.0 J/cm^2 at a fluence rate of 3.2 mW/cm^2. At 48 hours post PDT treatment, MTT was added. The solubilized formazan product was measured spectro-photometrically using a BIOTEK EL-800 plate reader. Data were processed using GEN5 software. A medium blank value was subtracted from all samples and Optical Density (O.D.) values of treated cells were divided by mean O.D. value of untreated cells for each light dose).
Colon26 cells were plated and allowed to adhere for 4 hours, then the photosensitizer was added and incubated at 37° C. for 24 hours. Plates were irradiated with 789 nm light from a dye laser at 3.2 mW/cm^2 for a total dose of 0.25 to 1.0 Joule/cm^2.
A general note: Tetrazolium assays rely on reduction of a dye to a coloured formazan, in cell work by metabolically active cells.

Data set [4] has as its system Colon26 tumors. The data set is described as follows: In vivo whole body tumor fluorescence imaging (IVIS Spectrum). The conditions noted are these: non-radioactive analogs, i.v., post-injection. Also noted: species or system BALB/c mice. As for the experimental part:
Before evaluating in vivo PDT efficacy of PS 4 by exposing the tumors with light, the time point for optimal tumor uptake of PS was determined by whole body fluorescence imaging of tumored mice at various time points after injecting the PS.
The multi-spectral imaging system, IVIS Spectrum (Perkin-Elmer) along with Living Image (image acquisition and analysis software) was used. IVIS Spectrum has the capability to use either trans-illumination (from the bottom) or epi-illumination (from the top) to illuminate in vivo fluorescent sources. […] Regions of interest (ROI) were defined for areas of compound accumulation (tumor, liver, skin) and total and average signal within the region were recorded. Fluorescent intensity is expressed as the total radiant efficiency ([p/s]/[μW/cm^2]. Results are expressed as mean total radiant efficiency of three mice±SD.

Data set [5] concerns Colon26 tumors. The data set is described as follows: In vivo PDT efficacy. Also noted: species or system BALB/c mice. The conditions noted are these: dose 1 μmol/kg; light 135 J/cm^2, 75 mW/cm^2 at 24 h postinjection; 5 mice/group. The method, then: Tumors were exposed to light (135 J/cm^2, 75 mW/cm^2) at 24 h (hour) postinjection (optimal time for tumor uptake for both the PSs).
For determining the in vivo imaging and therapeutic potential of 2, BALB/c mice (5-10 mice/group) bearing Colon26 tumors were used. In brief, 1×10^6 Colon26 cells were injected in mice subcutaneously. The tumors were left to grow for 1 week until they achieve the desired size (3-5 mm) for treatment. The photosensitizer was injected intravenously following the animal protocol approved by RPCI IACUC committee. Irradiance occurred 24 hours after i. v. injection; light dose was 135 J/cm^2 at a dose rate of 75 mW/cm^2 using the near-IR wavelengths of interest: 665 nm or 789 nm.
Two axes of the tumor (L, longest axis; W, shortest axis) were measured in millimeters with the aid of a Vernier caliper. Tumor weight (mg) was estimated as a formula: tumor weight=1/2 (L×W2). Tumor measurements were taken daily for the first 10 days and at least three tine a week for the first 4 weeks of post therapy and twice a week thereafter. Endpoints were 400 mm^3 tumor volume or 60 days.

Data set [6] relates to Colon26 tumors. The data set is described as follows: In vivo biodistribution of 124I-analogs. Also noted: species or system BALB/c mice. The conditions noted are these: for organ distribution (in words): ethanol/PBS formulation, i.v., 24, 48, 72 hours. As for the experimental part:
From left to right, each group is 24 hours 2, 48 hours 2, 72 hours 2, 24 hours 6, 48 hours 6, and 72 hours 6.
The labeled product, 6, was collected and dried.

Data set [7] concerns Colon26 tumors. Briefly: PET imaging of 124I-analogs. The conditions noted are these: ethanol/PBS formulation, 25 μCi/mouse.
Method: Compounds were resuspended in 10% ethanol saline, and ˜50 μCi were injected per mouse.
Final product was formulated in 10% ethanol in saline for injection in mice for PET imaging and biodistribution studies. Formulations noted as Pluronic® were formulated in 2% Pluronic® F-127 in saline. Mice were injected with 50 μCi (˜100 μL) for biodistribution, or 100 μCi (˜200 μL) for PET imaging.

As to HPPH, in data set [1], the “Singlet oxygen quantum yield φ” value is 0.45.

On to `CCC1=C(C)c2cc3[nH]c(cc4nc(c5c6[nH]c(cc1n2)c(C)c6C(=O)C5)[C@@H](CCC(=O)OC)[C@@H]4C)c(C)c3C(C)OCc1cccc([124I])c1` (stereo partly shown) [Compound 2, methyl 3-[1′-(m-iodobenzyloxy)ethyl]-3-devinyl pyropheophorbide], for which the “extinction coefficient at far-red absorbance peak” value in data set [2] is recorded as 47,500 L·mol^−1 cm^−1. In addition, the “Singlet oxygen quantum yield φ” value in data set [1] amounted to 0.29. Further, in data set [3] (5 μM in 17% BCS, 75 mW/cm^2), the “photobleaching experimental endpoint reached” value was 20%. The compound also gave a fraction photobleached in data set [3] (17% bovine calf serum, 5 μM, 75 mW/cm^2, by three hours) of 80%. Also, the “in vitro cytotoxicity at 10× increased drug concentrations (in words)” value in the data set with Colon26 cells (0.25 to 32.0 μM, significant cytotoxicity only at high concentrations at the highest light dose (FIG. 8B)) is “toxic effects only at high concentrations”. In addition, in the data set on Colon26 cells (variable drug concentrations, fixed light dose 1.0 J/cm^2 (FIG. 8A)), the “in vitro cytotoxicity (in words)” value was “light dose-dependent cytotoxicity”. In addition, the “time of optimal uptake in tumor (fluorescence imaging)” value in the data set on Colon26 tumors [4] worked out at 24 h. The “tumor cure after PDT” value with Colon26 tumors [5] was 80%.

Regarding `CCC1=C(C)c2cc3[nH]c(cc4nc(c5c6[nH]c(cc1n2)c(C)c6C=C(OC)C5=O)[C@@H](CCCC(=O)OC)[C@@H]4C)c(C)c3[C@H](C)OCc1cccc([124I])c1` [Compound 6, Methyl 3-[1′-(m-^124iodobenzyloxy)ethyl]-3-devinyl-13^3-keto-13^2methoxycyclohexene (verdin)], the tumor uptake in the data set with Colon26 tumors [6] (BALB/c mice implanted with Colon26 tumors, i.v.) is recorded as > 9 % of the injected dose. Besides, in the data set with Colon26 tumors [6], the “organ distribution (in words)” value is “significantly higher uptake in tumor than other organs”.

Regarding `CCC1=C(C)c2cc3[nH]c(cc4nc(c5c6[nH]c(cc1n2)c(C)c6C(=O)C5)[C@@H](CCC(=O)OC)[C@@H]4C)c(C)c3C(C)OCc1cccc(I)c1` (stereo partly shown) [Compound 2a, 3-(1′-m-iodobenzyloxy) ethyl-3-devinyl-pyropheo phorbide-a methyl ester, reference compound], the “organ distribution (in words)” value in the data set with Colon26 tumors [6] is “significantly high uptake in spleen”. Besides, in the data set with Colon26 tumors [7], the “time of maximum tumor uptake (PET)” value was determined as 24 h.
